Assays:
WBC = assay: Ex vivo expansion culture of UCB CD133+/CD34+ cells, WBC growth (cell density at day 7); assay type: cell-based, human; conditions: for regression coefficient of first-order model, Eq. (6): from Table 7, IMDM containing TISF; for regression coefficient of first-order model, Eq. (8): from Table 8, cytokine-containing medium; for effect on WBC growth: per Eq. (2), serum-containing IMDM; for regression coefficient of first-order model, Eq. (4): from Table 5, serum-containing medium, +1 = 10 ng/ml
Experimental: (§1) The UCB of full-termed healthy newborns, included uneventful vaginal births or cesarean sections, was harvested with a standard 250-ml blood bag containing citrate-phosphate-dextrose-adenine anticoagulant (Terumo, Shibuya-ku, Tokyo, Japan).
(§2) Buffy coat cells were obtained from UCB samples by centrifugation (700×g for 20 min), and were diluted with an equal volume of wash buffer (Dulbecco's phosphate buffered saline (D-PBS, Sigma, St. Louis, Mo.) contain 2 mM EDTA (Sigma)). Then the Buffy coat cells were layered onto Ficoll-Paque (ρ=1.077 g/ml, Amersham Biosciences, Uppsala, Sweden) density gradients to deplete red blood cells (RBC) (700×g for 40 min). The mononuclear cell (MNC) interface was collected, diluted into four volumes of wash buffer, and centrifuged to pellet the cells (700×g for 10 min). The MNC pellet was washed twice and resuspended in MACS buffer (D-PBS contained 0.5% bovine serum albumin (BSA, Sigma) and 2 mM EDTA) for CD133<+> cell purification. CD133<+> cord blood cells were isolated using the Miltenyi VarioMACS device (Miltenyi Biotec, Bergisch Gladbach, Germany), according to the manufacturer's instruction. Briefly, UCB MNC were incubated for 30 min at 4° C. with human IgG to block the Fc receptors and mouse monoclonal antibody to human CD133 microbead (Miltenyi Biotec). Labeled cells were applied to magnetic column (LS column, Miltenyi Biotec). Then, unbound cells were washed out, and CD133<+> cells were eluted from the column with MACS buffer. To improve the purity of the CD133+ (or CD34<+>) cells, a secondary purification cycle was performed with the same way. Then the cells were sampled for CD34<+> analysis to determine yield, purity and viability and assayed for colony-forming cells (CFC) as day 0 for control. To expand cells, CD133<+> cells were seeded at a concentration of 5×10^4 cells/ml in 24-well plate (1 ml per well, Falcon, N.J.) with variable serum substitutes, cytokines and medium according to experiment design. After 7 days, the cells were analyzed to compare with the day 0 control (all experiments were repeated at least four times).
(§3) Two-level factorial design followed the method of steepest ascent was carried out to find the optimal concentration of serum substitutes and cytokines for CD34<+> cells expansion. Fractional and full factorial design data were regressed by SPSS software (SPSS Inc. In: SPSS for Windows, base system user's guide. Release 6.0. Chicago, Ill.: SPSS Inc.; 1993. p. 235-47) to obtain the first order polynomial. Its statistical significance was determined by an F-test and the significance of the regression coefficients was analyzed by a t-test. The polynomial takes the form of White blood cell or CD34<+> cell (cells/ml)=β0+βiXi (1) where β's are the regression constants and X's are coded variables for the tested additives.

[1] = system: CD34<+> hematopoietic cells; assay: Ex vivo expansion culture of UCB CD133+/CD34+ cells, CD34+ cell growth by flow cytometry (cell density at day 7); assay type: cell-based, human; conditions: for regression coefficient of first-order model, Eq. (7): from Table 7, IMDM containing TISF; for regression coefficient of first-order model, Eq. (9): from Table 8, cytokine-containing medium; for effect on CD34<+> cell growth/expansion: per Eq. (3), serum-containing IMDM; for regression coefficient of first-order model, Eq. (5): from Table 5, +1 = 10 ng/ml
Experimental: as §1, §2
Cells before and after expanding culture were analyzed by two-color flow cytometry on a FACSCaliber analyzer (Becton-Dickinson, NJ, USA). About 1×10^6 cells were stained with FITC-conjugated anti-human CD45 and Peconjugated anti-human CD34, and gated for CD45<+>CD34<+> cells with low side scatter, according to the CD34 enumeration protocols developed by the International Society of Hematotherapy and Graft Engineering (ISHAGE) (Sutherland Dr, et al, J Hematother 1996; 5:231-8). A replicate sample was stained with FITC-antiCD45 and PE-mouse IgG1 as an isotype control to ensure specificity.
as §3

[2] = per Eqs. (6) and (7), serum substitutes in IMDM containing TISF
[3] = per Eqs. (8) and (9), serum substitutes in serum-free medium
[4] = 2^9−5 fractional factorial design in IMDM containing BIT2 (data not shown)
[5] = per Eqs. (10) and (11), serum-free IMDM + BIT2
[6] = per Eqs. (4) and (5), serum-containing medium

Molecule | regression coefficient of first-order model, Eq. (6) (WBC) | regression coefficient of first-order model, Eq. (7) [1] | regression coefficient of first-order model, Eq. (9) [1] | effect on WBC and CD34<+> cell growth [1, 2] | effect on WBC and CD34<+> cell growth [1, 3] | regression coefficient of first-order model, Eq. (8) (WBC) | effect on WBC and CD34<+> cell growth [1, 4] | effect on CD34<+> cell growth/expansion [1] | effect on WBC and CD34<+> cell growth [1, 5] | effect on WBC growth (WBC) | regression coefficient of first-order model, Eq. (5) ([1]; serum-containing medium) | effect on WBC and CD34<+> cell growth [1, 6] | regression coefficient of first-order model, Eq. (4) (WBC)
C[C@]12CCC(=O)C=C1CC[C@@H]1[C@@H]2[C@@H](O)C[C@@]2(C)[C@H]1CC[C@]2(O)C(=O)CO [HC, hydrocortisone, reference compound] | 0.5 10^5 WBC cells/ml | – | – | – | – | – | – | – | – | – | – | – | –
OCCS [Trial 2-ME, 2-mercaptoethanol] | 0.875 10^5 WBC cells/ml | 0.311 10^5 CD34<+> cells/ml | 0.025 10^6 CD34<+> cells/ml | can stimulate both WBC and CD34<+> cell growth | could promote WBC and CD34<+> cell growth instead of serum | 0.069 10^6 WBC cells/ml | – | – | – | – | – | – | –
IL-6: recombinant human interleukin-6, purchased from R&D systems | – | – | – | – | – | – | could facilitate WBC and CD34<+> cell growth | less positive effects than TPO, IL-3, SCF and FL | positively affected WBC and CD34<+> cell growth | – | – | – | –
Transferrin [TF] | – | 0.120 10^5 CD34<+> cells/ml | 0.303 10^6 CD34<+> cells/ml | can stimulate both WBC and CD34<+> cell growth | could promote WBC and CD34<+> cell growth instead of serum | 0.7 10^6 WBC cells/ml | – | – | – | – | – | – | –
bovine serum albumin [BSA] | 2.625 10^5 WBC cells/ml | 0.945 10^5 CD34<+> cells/ml | 0.302 10^6 CD34<+> cells/ml | can stimulate both WBC and CD34<+> cell growth | could promote WBC and CD34<+> cell growth instead of serum | 0.362 10^6 WBC cells/ml | – | – | – | – | – | – | –
granulocyte-macrophage colony-stimulating factor [GM-CSF] | – | – | – | – | – | – | could facilitate WBC and CD34<+> cell growth | negative | positively affected WBC and CD34<+> cell growth | positive | – | – | –
insulin | 1.250 10^5 WBC cells/ml | 0.231 10^5 CD34<+> cells/ml | 0.053 10^6 CD34<+> cells/ml | can stimulate both WBC and CD34<+> cell growth | could promote WBC and CD34<+> cell growth instead of serum | 0.131 10^6 WBC cells/ml | – | – | – | – | – | – | –
stem cell factor [SCF] | – | – | – | – | – | – | could facilitate WBC and CD34<+> cell growth | can stimulate CD34<+> cell expansion | positively affected WBC and CD34<+> cell growth | stronger effects than the other cytokines | 0.162 10^6 CD34<+> cells/ml | facilitated WBC and CD34<+> cell growth | 0.387 10^6 WBC cells/ml
thrombopoietin [TPO] | – | – | – | – | – | – | could facilitate WBC and CD34<+> cell growth | can stimulate CD34<+> cell expansion | positively affected WBC and CD34<+> cell growth | stronger effects than the other cytokines | 0.172 10^6 CD34<+> cells/ml | facilitated WBC and CD34<+> cell growth | 0.413 10^6 WBC cells/ml
IL-6 sR: IL-6 sR (soluble receptor), purchased from R&D systems (protein, UniProt P08887 20-365, looked up, extracellular domain, IL-6 sR (soluble receptor), purchased from R&D systems) extracellular domain: LAPRRCPAQEVARGVLTSLPGDSVTLTCPGVEPEDNATVHWVLRKPAAGSHPSRWAGMGRRLLLRSVQLHDSGNYSCYRAGRPAGTVHLLVDVPPEEPQLSCFRKSPLSNVVCEWGPRSTPSLTTKAVLLVRKFQNSPAEDFQEPCQYSQESQKFSCQLAVPEGDSSFYIVSMCVASSVGSKFSKTQTFQGCGILQPDPPANITVTAVARNPRWLSVTWQDPHSWNSSFYRLRFELRYRAERSKTFTTWMVKDLQHHCVIHDAWSGLRHVVQLRAQEEFGQGEWSEWSPEAMGTPWTESRSPPAENEVSTPMQALTTNKDDDNILFRDSANATSLPVQDSSSVPLP | – | – | – | – | – | – | – | – | – | inhibited WBC growth | – | – | –
Flt-3 ligand (protein, UniProt P49771 27-235, looked up, recombinant human growth factor) Fms-related tyrosine kinase 3 …: TQDCSFQHSPISSDFAVKIRELSDYLLQDYPVTVASNLQDEELCGGLWRLVLAQRWMERLKTVAGSKMQGLLERVNTEIHFVTKCAFQPPPSCLRFVQTNISRLLQETSEQLVALKPWITRQNFSRCLELQCQPDSSTLPPPWSPRPLEATAPTAPQPPLLLLLLLPVGLLLLAAAWCLHWQRTRRRTPRPGEQVPPVPSPQDLLLVEH | – | – | – | – | – | – | could facilitate WBC and CD34<+> cell growth | can stimulate CD34<+> cell expansion | positively affected WBC and CD34<+> cell growth | stronger effects than the other cytokines | 0.110 10^6 CD34<+> cells/ml | facilitated WBC and CD34<+> cell growth | 0.237 10^6 WBC cells/ml
granulocyte colonystimulating factor (protein, UniProt P09919 31-207, looked up, recombinant human growth factor) Granulocyte …: TPLGPASSLPQSFLLKCLEQVRKIQGDGAALQEKLVSECATYKLCHPEELVLLGHSLGIPWAPLSSCPSQALQLAGCLSQLHSGLFLYQGLLQALEGISPELGPTLDTLQLDVADFATTIWQQMEELGMAPALQPTQGAMPAFASAFQRRAGGVLVASHLQSFLEVSYRVLRHLAQP | – | – | – | – | – | – | could facilitate WBC and CD34<+> cell growth | less positive effects than TPO, IL-3, SCF and FL | positively affected WBC and CD34<+> cell growth | – | – | – | –

Reference: patent US8762074B2, “Optimizing culture medium for CD34<+> hematopoietic cell expansion” (Sino-Cell Technologies, priority 2004, dated 2014)
